Assay results as given in US20240366652A1, “OSTEOARTHRITIS PROGRESSION INHIBITOR AND PROGRESSION INHIBITION KIT” (KYUSHU UNIVERSITY, NATIONAL UNIVERSITY CORPORATION, priority 2021, published 2024).

How the values were obtained:
[1] = tested on: OA-induced mice (DMM model); experiment: Cartilage degeneration in OA-induced mice (DMM model), OARSI histopathological score after intraarticular administration; type: in vivo; details: intraarticular 10 μL every 5 days for 8 weeks, Amlexanox 100 μM, hyaluronic acid 10 mg/mL, versus physiological saline group, 8 weeks after surgery
Description: OA was induced in 12-week-old male mice (wild type mice and GRK5KO mouse) by removing the ligament, which connects and secures the medial meniscus to the tibia, to cause the knee joint instability (DMM model) (hereinafter, referred to as a “DMM group” in some cases). In addition, as a control, mice subjected to a sham operation by the same method without removing the ligament were also prepared (hereinafter, referred to as a “sham group” in some cases). Subsequently, immediately after the OA induction, four groups were classified as follows: a group administered with physiological saline (10 μL) every 5 days for 8 weeks; a group administered with a hyaluronic acid solution (10 mg/mL, 10 μL); a group administered with an Amlexanox solution (100 μM, 10 μL), a group administered with a mixed solution (10 μL) of
Amlexanox (100 μM) and hyaluronic acid (10 mg/mL) (see FIG. 2A). Knee joint tissue sections of each group at a time point of 8 weeks after OA induction surgery were stained with safranin O. The results are shown in FIG. 2B (staining image).
In addition, the severity degree of OA was quantified by evaluating the stained sections based on histopathological grade recommended by OARSI.
Using the same method as in Example 2, a mixed solution of Amlexanox (100 μM) and hyaluronic acid (10 mg/mL) was administered to OA-induced mice every […] for 8 weeks (see FIG. 3A). […]

IL6 = IL6 mRNA expression in LPS-stimulated human OA cartilage cells (quantitative real-time PCR); type: cell-based; details: Amlexanox 100 μM and/or hyaluronic acid 1 mg/mL, 48 hours, LPS 10 μg/mL 6 hours, GAPDH internal standard
Description: (§1) Human cartilage cells were isolated and cultured from an excised cartilage fragment that is usually discarded after artificial knee joint replacement surgery. All donors provided consent to participate in the clinical research approved by the Ethics Review Committee. Due consideration was given to personal information of all donors in handling. Donor's knee joints were OA grade (Kellgren-lawrence) III to IV on X-rays.
(§2) Amlexanox (concentration in medium: 100 μM) and hyaluronic acid (concentration in medium: 1 mg/mL, weight-average molecular weight: 500,000 or more and 1,490,000 or less) were added to human OA cartilage cells and incubated for 48 hours. As a control, those that had been incubated for 48 hours without any administration, and those that were administered with Amlexanox (concentration in medium: 100 μM) and hyaluronic acid (concentration in medium: 1 mg/mL, weight-average molecular weight: 500,000 or more and 1,490,000 or less) and incubated for 48 hours were also prepared.
(§3) Human OA cartilage cells into which Amlexanox and hyaluronic acid were added were stimulated with lipopolysaccharide (LPS) (concentration in medium: 10 μg/mL) and incubated for 6 hours. Thereafter, mRNA was recovered from the above cells. After reverse transcription, quantitative real-time PCR was performed using LightCycler 2.0 system (Roche). GAPDH was used as an internal standard.

ADAMTS4 = ADAMTS4 mRNA expression in LPS-stimulated human OA cartilage cells (quantitative real-time PCR); type: cell-based; details: Amlexanox 100 μM and/or hyaluronic acid 1 mg/mL, 48 hours, LPS 10 μg/mL 6 hours, GAPDH internal standard
Description: as §1, §2, §3

GRK5 = details: reported in Reference 2; cited from earlier work
[2] = after intraarticular administration; cited from earlier work
MMP13 = MMP13 mRNA expression in LPS-stimulated human OA cartilage cells (quantitative real-time PCR); type: cell-based; details: Amlexanox 100 μM and/or hyaluronic acid 1 mg/mL, 48 hours, LPS 10 μg/mL 6 hours, GAPDH internal standard
Description: as §1, §2, §3

CC(C)c1ccc2oc3nc(N)c(C(=O)O)cc3c(=O)c2c1 [Amlexanox, 2-amino-7-isopropyl-5-oxo-5H-[1]benzopyrano [2,3-b]-pyridine-3-carboxylic acid]
OARSI score, control group ratio [1]: 56.95%
IL6 expression, control ratio (IL6): 32.99%
ADAMTS4 expression, control ratio (ADAMTS4): 42.04%
GRK5 inhibition (selectivity, in words) (GRK5): selectively inhibits GRK5
half-life in joint fluid / in the joint [2]: several hours
MMP13 expression, control ratio (MMP13): 43.83%
